Measurements: patent US20040081655A1, “Methods and compositions comprising polycationic compounds” (priority 2001, published 2004)
Entries after “also recorded” stand apart in the source; their conditions may differ.

Columns and labels:
CD11c+ sorted BM-DC [1] = assay: CpG-ODN-induced production of TNF-α and IL-6 by murine BM-DC in vitro, poly-L-arginine (Example 5); assay type: cell-based, C57Bl/6 mice; details: 24 h; for production of IL-6 by murine BM-DC / production of TNF-α by murine BM-DC: substance alone (poly-L-arginine 10 μg/ml; CpG-ODN 1668 1 nmol/ml), supernatant ELISA
Method: (§1) Murine dendritic cells (DC) were generated from bone-marrow precursor cells of C57Bl/6 mice as previously described (Inaba 1992). Briefly, bone marrow cells were obtained by flushing the femurs and tibias with medium. Cells were depleted of lymphocytes, granulocytes and MHC class II^+cells by Ab-complement-mediated lysis. Dead cells were removed by Ficoll gradient (Ficoll Separating Solution, density […]; Biochrom KG, Germany). The remaining cells (1×10^6/ml) were cultured in 24-well culture plates in high glucose DMEM medium (PAA Laboratories GmbH, Linz, Austria; E 15-009) supplemented with 10% heat-inactivated FCS, 10. mM sodium pyruvate, 2 mM L-glutamine, […] gentamicin, 0.5 mM 2-mercaptoethanol (all supplements from PAA Laboratories GmbH, Linz, Austria), 20 ng/ml GM-CSF and 250 U/ml IL-4. On day 3 of culture, cells were fed with fresh medium. On day 6 of culture, non-adherent cells and loosely adherent aggregates were harvested, washed and re-plated in 6-well culture plates (2×10^6/5 ml). After additional 1 day of culture, non-adherent cells were collected for analyses. […] For in vitro-stimulations, day 7-cultured bone marrow cells were further enriched for CD11c^+ cells (=DC) using magnetic beads (Miltenyi, Bergisch-Gladbach, Germany). The purity of BM-DC was more than 95% as determined by flow cytometry analyses. […] Supernatants were harvested after 24 h and analysed for the production of TNF-α and IL-6 using specific ELISAs.

CD11c+ sorted BM-DC [2] = assay: CpG-ODN-induced production of TNF-α and IL-6 by murine BM-DC in vitro, KLK (Example 7); assay type: cell-based, C57B1/6 mice; details: 24 h; for production of IL-6 by murine BM-DC / production of TNF-a by murine BM-DC: substance alone (KLK 16, 8 μg/ml; CpG-ODN 1668 0.5 nmol/ml), supernatant ELISA
Method: as §1
Murine dendritic cells (DC) were generated from bone-marrow precursor cells of C57B1/6 mice as described in example 5.

TNF-a and IL-6 = assay: BCG/CpG-ODN-induced systemic production of TNF-a and IL-6 in vivo, serum ELISA (Example 8); parameters: species or system Mice C57Bl/6
Method: (§2) Mice were injected subcutaneously into the flank with a total volume of 100 μl, containing the above mentioned compounds. One hour after injection blood was taken from the tail-vein and serum was prepared. The amount of the pro-inflammatory cytokines TNF-a and IL-6 in the sera was determined by cytokine-specific ELISAs according to the manufacturer's instructions (R&D Systems, Inc., Minneapolis, Minn.).

[3] = system: human monocyte-derived DC; assay: Poly I:C-induced production of pro-inflammatory cytokines by human DC in vitro (Example 6); assay type: cell-based; details: for production of IL-6 by human DC / production of TNF-α by human DC / production of IL-12/p70 by human DC: substance alone, 10 μg/ml, supernatant ELISA; for poly I:C-induced production of pro-inflammatory cytokines by human DC: poly I:C and pR60 together, in vitro
Method: Human DC were generated from monocytes.
To determine, which cytokines are induced/produced by DC upon poly I:C and/or pR stimulation, DC were incubated with different stimuli for 12 and 24 hours, supernatants were harvested, stored at −20° C. and screened for the presence of respective cytokines by specific ELISAs.

TNF-α and IL-6 = assay: CpG-ODN-induced systemic production of TNF-α and IL-6 in vivo, serum ELISA (Example 4); parameters: species or system Mice C57Bl/6; details: for production of IL-6 in serum after injection / production of TNF-α in serum after injection: one hour after injection into hind footpads, ELISA
Method: as §2, with “injected” for “injected subcutaneously”, “each hind footpad” for “the flank”, “μl (50 μl per footpad),” for “μl,”, “TNF-α” for “TNF-a”

human dendritic cells = assay: LPS-induced production of pro-inflammatory cytokines by human dendritic cells in vitro (Example 10); details: for LPS-induced production of pro-inflammatory cytokines by human dendritic cells: in vitro, mode of incubation not specified; for production of IL-6 by human dendritic cells / production of TNF-a by human dendritic cells: substance alone (LPS 5 ng/ml; pR60 10 μg/ml; KLK 16, 8 μg/ml; pK 10 μg/ml), culture medium 12 h then substance 12 h
Method: Human DC were generated from monocytes. Briefly, peripheral blood leukocytes (PBLs) were isolated from buffy coats of healthy volunteers by Ficoll gradient centrifugation. Monocytes were isolated from PBLs using CD14-coated magnetic beads (Miltenyi Biotec Inc., Germany) applied according to the manufacturer's instructions. Using this method, we obtained >95% CD14^+ cells as determined by flow cytometry. These CD14^+ monocytes were cultured in RPMI 1640 medium supplemented with 10% FCS (PAA Laboratories, Linz, Austria), non-essential aminoacids, L-glutamin, gentamicin, sodium pyruvate, 100 ng/ml human GM-CSF and 500 U/ml human IL-4 in 6-well tissue plates for 6-7 days. To this end, the cultures contained >80%. MHC class II^+/CD1a^+ cells (=DC).
Human dendritic cells (DC) were generated as described in example 6. For in vitro-stimulations, day 7-cultured dendritic cells were incubated for 12 h with the indicated compounds. After centrifugation, supernatant was removed, cells were washed once with medium, then fresh medium with the indicated compounds was added, and the cells were incubated for additional 12 h. Supernatants were harvested and analyzed for the production of TNF-a and IL-6 using specific ELISAs.

[4] = system: murine bone-marrow-derived dendritic cells; assay: LPS-induced production of pro-inflammatory cytokines by murine bone-marrow-derived dendritic cells in vitro (Example 9); assay type: cell-based, C57Bl/6 mice
Method: Murine dendritic cells (DC) were generated from bone-marrow precursor cells of C57Bl/6 mice as previously described (Inaba 1992). Briefly, bone marrow cells were obtained by flushing the femurs and tibias with medium. Cells were depleted of lymphocytes, granulocytes and MHC class II^+cells by Ab-complement-mediated lysis. Dead cells were removed by Ficoll gradient (Ficoll Separating Solution, density […]; Biochrom KG, Germany). The remaining cells (1×10^6/ml) were cultured in 24-well culture plates in high glucose DMEM medium (PAA Laboratories GmbH, Linz, Austria; E 15-009) supplemented with 10% heat-inactivated FCS, 10. mM sodium pyruvate, 2 mM L-glutamine, […] gentamicin, 0.5 mM 2-mercaptoethanol (all supplements from PAA Laboratories GmbH, Linz, Austria), 20 ng/ml GM-CSF and 250 U/ml IL-4. On day 3 of culture, cells were fed with fresh medium. On day 6 of culture, non-adherent cells and loosely adherent aggregates were harvested, washed and re-plated in 6-well culture plates (2×10^6/5 ml). After additional 1 day of culture, non-adherent cells were collected for analyses. […] For in vitro-stimulations, day 7-cultured bone marrow cells were further enriched for CD11c^+ cells (=DC) using magnetic beads (Miltenyi, Bergisch-Gladbach, Germany). The purity of BM-DC was more than 95% as determined by flow cytometry analyses.
Murine dendritic cells (DC) were generated from bone-marrow precursor cells of C57Bl/6 mice as described in example 5.

[5] = one hour after s.c. injection into the flank, ELISA
[6] = cells pre-incubated with polycationic compound 12 h, then LPS 12 h
[7] = mixture of LPS and polycationic compound, 12 h
[8] = mixture of CpG-ODN 1668 (0.5 nmol/ml) and KLK (16, 8 μg/ml)
[9] = poly-L-arginine co-injected with OVA257-264-peptide and CpG-ODN, serum one hour after injection
[10] = mixture of CpG-ODN 1668 (1 nmol/ml) and poly-L-arginine (10 μg/ml)
[11] = mixture of pIC (10 μg/ml) and pR (10 μg/ml), 12 and 24 hours
[12] = BCG vaccine and CpG-ODN co-injected with poly-L-arginine, serum one hour after injection
[13] = cells pre-incubated with poly-L-arginine 12 h, then LPS 12 h
[14] = mixture of LPS/poly-L-arginine, 12 h
[15] = substance alone (LPS 10 ng/ml; pR60 10 μg/ml), culture medium 12 h then substance 12 h

| Molecule | production of IL-6 by murine BM-DC (CD11c+ sorted BM-DC [2]) | production of TNF-a by murine BM-DC (CD11c+ sorted BM-DC [2]) | production of IL-6 by human DC ([3]; 12 and 24 hours) | production of TNF-α by human DC ([3]; 12 and 24 hours) | production of IL-12/p70 by human DC [3] | LPS-induced production of IL-6 by human dendritic cells (human dendritic cells; [6]) | LPS-induced production of TNF-a by human dendritic cells (human dendritic cells; [6]) | LPS-induced production of pro-inflammatory cytokines by human dendritic cells (human dendritic cells) | LPS-induced production of IL-6 by human dendritic cells (human dendritic cells; [7]) | LPS-induced production of TNF-a by human dendritic cells (human dendritic cells; [7]) | production of IL-6 by human dendritic cells (human dendritic cells) | production of TNF-a by human dendritic cells (human dendritic cells) | other results |
| --- | --- | --- | --- | --- | --- | --- | --- | --- | --- | --- | --- | --- | --- |
| tcc atg acg ttc ctg atg ct (TCCATGACGTTCCTGATGCT; chemistry not given here) [CpG-ODN 1668, phosphothioate-modified oligodinucleotides containing a CpG-motif, reference compound] | induces the production | induces the production |  |  |  |  |  |  |  |  |  |  | production of IL-6 by murine BM-DC (CD11c+ sorted BM-DC [1]; listed as CPG-ODN 1668): induces the production; production of TNF-α by murine BM-DC (CD11c+ sorted BM-DC [1]; listed as CPG-ODN 1668): induces the production; production of IL-6 by murine BM-DC (CD11c+ sorted BM-DC [1]; listed as CpG-ODN): significant amounts of both cytokines are produced; production of TNF-α by murine BM-DC (CD11c+ sorted BM-DC [1]; listed as CpG-ODN): significant amounts of both cytokines are produced; production of IL-6 in serum after injection (TNF-a and IL-6; [5]): induces the systemic production; production of TNF-a in serum after injection (TNF-a and IL-6; [5]): induces the systemic production |
| Polyinosinic-polycytidylic acid [poly I:C, reference compound] |  |  | triggers the production | triggers the production | produced IL-12/p70 |  |  |  |  |  |  |  |  |
| CC[C@H](C)[C@H](NC(=O)[C@@H](NC(=O)[C@@H](N)CO)[C@@H](C)CC)C(=O)N[C@@H](CC(N)=O)C(=O)N[C@@H](Cc1ccccc1)C(=O)N[C@@H](CCC(=O)O)C(=O)N[C@@H](CCCCN)C(=O)N[C@@H](CC(C)C)C(=O)O [OVA257-264, reference compound] |  |  |  |  |  |  |  |  |  |  |  |  | production of IL-6 in serum after injection (TNF-α and IL-6): does not-induce the production of detectable amounts; production of TNF-α in serum after injection (TNF-α and IL-6): does not-induce the production of detectable amounts; production of IL-6 in serum after injection (TNF-α and IL-6; listed as OVA257-264-peptide): neither the injection of OVA257-264-peptide alone nor in combination with poly-L-arginine led to the induction of significant amounts; production of TNF-α in serum after injection (TNF-α and IL-6; listed as OVA257-264-peptide): neither the injection of OVA257-264-peptide alone nor in combination with poly-L-arginine led to the induction of significant amounts |
| Poly-D-lysine Hydrobromide |  |  |  |  |  | inhibited | inhibited | decrease | inhibited | inhibited | could not detect any | could not detect any |  |
| KLKLLLLLKLK | could not detect any | could not detect any |  |  |  | inhibited | inhibited | decrease | inhibited | inhibited | could not detect any | could not detect any | CpG-ODN 1668-induced production of IL-6 by murine BM-DC (CD11c+ sorted BM-DC [2]; [8]): inhibited; also recorded: abrogates; CpG-ODN 1668-induced production of TNF-a by murine BM-DC (CD11c+ sorted BM-DC [2]; [8]): inhibited; also recorded: abrogates |
| Poly-L-Arginine |  |  | could not detect any | could not detect any | could not detect any | inhibited | inhibited | decrease | inhibited | inhibited | could not detect any | could not detect any | CpG-ODN-induced systemic production of IL-6 (TNF-α and IL-6; [9]): inhibited; also recorded: prevents; also recorded: totally abolished; CpG-ODN-induced systemic production of TNF-α (TNF-α and IL-6; [9]): inhibited; also recorded: prevents; also recorded: totally abolished; CpG-ODN 1668-induced production of IL-6 by murine BM-DC (CD11c+ sorted BM-DC [1]; [10]): inhibited; also recorded: abrogates; CpG-ODN 1668-induced production of TNF-α by murine BM-DC (CD11c+ sorted BM-DC [1]; [10]): inhibited; also recorded: abrogates; production of IL-6 by murine BM-DC (CD11c+ sorted BM-DC [1]): could not detect any; also recorded: neither TNF-α nor IL-6 were detectable; production of TNF-α by murine BM-DC (CD11c+ sorted BM-DC [1]): could not detect any; also recorded: neither TNF-α nor IL-6 were detectable; poly I:C-induced IL-6 production by human DC [3, 11]: inhibited; poly I:C-induced TNF-α production by human DC [3, 11]: inhibited; poly I:C-induced production of pro-inflammatory cytokines by human DC [3]: abrogates; also recorded: inhibits; poly I:C-induced production of pro-inflammatory cytokines by human DC ([3]; listed as pR): can be inhibited; BCG/CpG-ODN-induced systemic production of IL-6 (TNF-a and IL-6; [12]): inhibited; also recorded: prevents; BCG/CpG-ODN-induced systemic production of TNF-a (TNF-a and IL-6; [12]): inhibited; also recorded: prevents; LPS-induced production of IL-6 by murine BM-DC [4, 13]: inhibited; LPS-induced production of TNF-a by murine BM-DC [4, 13]: inhibited; LPS-induced production of pro-inflammatory cytokines by murine bone-marrow-derived dendritic cells ([4]; in vitro, mode of incubation not specified): decrease; LPS-induced production of IL-6 by murine BM-DC [4, 14]: inhibited; LPS-induced production of TNF-a by murine BM-DC [4, 14]: inhibited; production of IL-6 by murine BM-DC [4, 15]: could not detect any; production of TNF-a by murine BM-DC [4, 15]: could not detect any |
